Columns and labels:
HDAC7 = target: T1, HDAC7 (Homo sapiens, UniProt Q8WUI4); experiment: Global quantitative proteomics, change in protein abundance in Kelly cells; type: cell-based; set-up: endogenous in cells; host or cells: Kelly cells; conditions: 1 μM, 5-hour treatment, vs DMSO, FIG. 3
T1 sequence (Q8WUI4 1-952): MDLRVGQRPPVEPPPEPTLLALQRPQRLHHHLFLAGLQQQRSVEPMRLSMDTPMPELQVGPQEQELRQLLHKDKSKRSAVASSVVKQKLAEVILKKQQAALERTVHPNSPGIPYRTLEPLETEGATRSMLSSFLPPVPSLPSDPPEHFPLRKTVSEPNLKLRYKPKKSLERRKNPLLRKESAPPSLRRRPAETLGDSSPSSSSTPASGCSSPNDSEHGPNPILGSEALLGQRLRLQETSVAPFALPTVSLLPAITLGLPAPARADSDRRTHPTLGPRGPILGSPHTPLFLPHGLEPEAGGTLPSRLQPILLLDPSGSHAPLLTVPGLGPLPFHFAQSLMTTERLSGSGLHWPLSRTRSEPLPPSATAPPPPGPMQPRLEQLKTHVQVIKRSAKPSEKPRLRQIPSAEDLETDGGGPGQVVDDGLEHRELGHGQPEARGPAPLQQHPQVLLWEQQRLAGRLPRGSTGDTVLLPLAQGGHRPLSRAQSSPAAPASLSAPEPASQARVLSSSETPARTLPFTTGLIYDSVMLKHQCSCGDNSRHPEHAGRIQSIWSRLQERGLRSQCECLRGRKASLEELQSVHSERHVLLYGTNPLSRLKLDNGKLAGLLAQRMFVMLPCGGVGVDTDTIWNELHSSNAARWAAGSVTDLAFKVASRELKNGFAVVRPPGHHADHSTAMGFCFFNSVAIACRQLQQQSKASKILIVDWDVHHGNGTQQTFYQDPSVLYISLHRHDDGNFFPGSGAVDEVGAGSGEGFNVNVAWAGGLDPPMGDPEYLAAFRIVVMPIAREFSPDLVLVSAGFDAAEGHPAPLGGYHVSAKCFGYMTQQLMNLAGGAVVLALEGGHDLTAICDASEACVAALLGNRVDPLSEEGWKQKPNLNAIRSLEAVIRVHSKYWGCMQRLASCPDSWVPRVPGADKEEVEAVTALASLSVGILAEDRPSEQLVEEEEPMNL
Description: (§1) Cells were washed once with phosphate-buffered saline (PBS), harvested with CellstripperTM (Corning®), washed two additional times with PBS and snap frozen in liquid nitrogen. […] Proteins were precipitated using methanol/chloroform in Donovan et al., Elife 7:e38430 (2018). The precipitated protein was resuspended in 4 M Urea, 50 mM HEPES pH 7.4, followed by dilution to 1 M urea with the addition of 200 mM EPPS, pH 8. Proteins were first digested with LysC (1:50: enzyme:protein) for 12 hours at room temperature. The LysC digestion was diluted to 0.5 M Urea with 200 mM EPPS pH 8 followed by digestion with trypsin (1:50: enzyme:protein) for 6 hours at 37° C. Tandem mass tag (TMT) reagents (Thermo Fisher Scientific) were dissolved in anhydrous acetonitrile (ACN) according to manufacturer's instructions. Anhydrous ACN was added to each peptide sample to a final concentration of 30% v/v, and labeling was induced with the addition of TMT reagent to each sample at a ratio of 1:4 peptide:TMT label. The 11-plex labeling reactions were performed for 1.5 hours at room temperature and the reaction quenched by the addition of hydroxylamine to a final concentration of 0.3% for 15 minutes at room temperature. The sample channels were combined at a 1:1 ratio, desalted using C18 solid phase extraction cartridges (Waters®) and analyzed by LC-MS for channel ratio comparison. Samples were then combined using the adjusted volumes determined in the channel ratio analysis and dried down in a speed vacuum. The combined sample was then resuspended in 1% formic acid, and acidified (pH 2-3) before being subjected to desalting with C18 SPE (Sep-Pak®-, Waters®). […] The 96 resulting fractions were then pooled in a non-contiguous manner into 24 fractions and these fractions were used for subsequent mass spectrometry analysis. Data were collected using an Orbitrap FusionTM LumosTM mass spectrometer (Thermo Fisher Scientific, San Jose, CA, USA) coupled with a […] pump (Thermo Fisher Scientific). Peptides were separated on an EasySprayTM ES803.rev2 75 μm inner diameter microcapillary column (ThermoFisher Scientific). Peptides were separated using a 190 min gradient of 6-27% acetonitrile in 1.0% formic acid with a flow rate of 300 nL/min. Each analysis used an MS3-based TMT method as described in McAlister et al., Anal. Chem. 86(14):7150-7158 (2014). The data were acquired using a mass range of m/z 340-1350, resolution 120,000, automatic gain control (AGC) target 1×10^6, maximum injection time 100 ms, dynamic exclusion of 120 seconds for the peptide measurements in the Orbitrap FusionTM LumosTM mass spectrometer. Data dependent MS2 spectra were acquired in the ion trap with a normalized collision energy (NCE) set at 55%, AGC target set to 1.5×10^5 and a maximum injection time of 150 ms. MS3 scans were acquired in the Orbitrap FusionTM LumosTM mass spectrometer with a higher energy collision dissociation (HCD) set to 55%, AGC target set to 1.5×10^5, maximum injection time of 150 ms, resolution at 50,000 and with a maximum synchronous precursor selection (SPS) precursors set to 10. Proteome Discoverer 2.2 (Thermo Fisher Scientific) was used for .RAW file processing and controlling peptide and protein level false discovery rates, assembling proteins from peptides, and protein quantification from peptides. MS/MS spectra were searched against a Swissprot human database (December 2016) with both the forward and reverse sequences. […] TMT reporter ion intensities were measured using a 0.003 Da window around the theoretical m/z for each reporter ion in the MS3 scan. […] Reporter ion intensities were normalized and scaled using in-house scripts in the R framework. Statistical analysis was carried out using the limma package within the R framework as described in Ritchie et al., Nucleic Acids Res. 43(7):e47 (2015).

HDAC6 = HDAC6 (Homo sapiens, UniProt Q9UBN7); conditions: FIG. 2A
Sequence of HDAC6 (Q9UBN7 whole entry): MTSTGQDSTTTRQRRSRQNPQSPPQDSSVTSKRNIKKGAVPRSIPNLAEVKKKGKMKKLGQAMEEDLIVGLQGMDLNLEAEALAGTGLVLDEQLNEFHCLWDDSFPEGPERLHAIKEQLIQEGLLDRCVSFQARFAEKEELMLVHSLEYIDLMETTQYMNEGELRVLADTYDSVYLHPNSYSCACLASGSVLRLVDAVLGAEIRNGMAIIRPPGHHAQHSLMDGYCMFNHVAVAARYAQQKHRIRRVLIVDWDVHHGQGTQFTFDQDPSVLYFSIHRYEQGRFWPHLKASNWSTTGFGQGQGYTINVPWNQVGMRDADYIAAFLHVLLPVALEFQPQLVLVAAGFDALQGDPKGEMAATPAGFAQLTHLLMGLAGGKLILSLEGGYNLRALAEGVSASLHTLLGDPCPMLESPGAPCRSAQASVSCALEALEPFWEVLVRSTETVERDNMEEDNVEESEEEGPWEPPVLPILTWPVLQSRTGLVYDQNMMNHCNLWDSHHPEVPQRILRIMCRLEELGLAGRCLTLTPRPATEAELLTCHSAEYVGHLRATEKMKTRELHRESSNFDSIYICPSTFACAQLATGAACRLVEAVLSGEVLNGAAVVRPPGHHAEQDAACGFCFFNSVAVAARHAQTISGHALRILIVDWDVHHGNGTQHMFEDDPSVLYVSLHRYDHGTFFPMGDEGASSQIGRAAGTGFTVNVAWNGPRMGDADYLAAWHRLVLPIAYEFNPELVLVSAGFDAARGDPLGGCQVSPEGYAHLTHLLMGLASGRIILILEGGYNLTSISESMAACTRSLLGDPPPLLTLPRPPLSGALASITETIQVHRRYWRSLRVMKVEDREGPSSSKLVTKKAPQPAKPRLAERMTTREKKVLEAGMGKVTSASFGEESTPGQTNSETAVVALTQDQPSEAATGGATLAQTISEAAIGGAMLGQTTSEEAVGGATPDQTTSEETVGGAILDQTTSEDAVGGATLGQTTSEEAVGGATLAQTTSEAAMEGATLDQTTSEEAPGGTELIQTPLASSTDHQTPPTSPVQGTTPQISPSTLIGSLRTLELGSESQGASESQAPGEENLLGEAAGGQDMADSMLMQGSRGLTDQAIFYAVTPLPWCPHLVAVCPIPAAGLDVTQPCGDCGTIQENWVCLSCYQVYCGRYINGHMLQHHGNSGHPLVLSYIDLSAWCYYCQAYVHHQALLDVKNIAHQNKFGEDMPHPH
Description: (§2) The in vitro HDAC enzymatic assays were performed by Reaction Biology (Devault, PA).

HDAC8 = HDAC8 (Homo sapiens, UniProt Q9BY41); conditions: FIG. 2A
Sequence of HDAC8 (Q9BY41 whole entry): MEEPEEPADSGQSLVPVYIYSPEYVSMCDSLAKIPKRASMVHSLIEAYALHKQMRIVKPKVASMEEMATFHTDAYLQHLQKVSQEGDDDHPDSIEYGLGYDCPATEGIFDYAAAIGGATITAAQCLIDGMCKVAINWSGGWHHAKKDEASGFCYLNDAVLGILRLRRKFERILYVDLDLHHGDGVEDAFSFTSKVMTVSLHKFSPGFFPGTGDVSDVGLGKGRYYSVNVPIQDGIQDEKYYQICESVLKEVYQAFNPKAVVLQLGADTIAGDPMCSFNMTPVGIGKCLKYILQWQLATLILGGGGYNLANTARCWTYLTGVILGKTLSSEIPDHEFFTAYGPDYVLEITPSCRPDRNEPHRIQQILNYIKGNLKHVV
Description: as §2

HDAC4 = HDAC4 (Homo sapiens, UniProt P56524); experiment: Global quantitative proteomics, change in protein abundance in Kelly cells; type: cell-based; set-up: endogenous in cells; host or cells: Kelly cells; conditions: 1 μM, 5-hour treatment, vs DMSO, FIG. 3
Sequence of HDAC4 (P56524 whole entry): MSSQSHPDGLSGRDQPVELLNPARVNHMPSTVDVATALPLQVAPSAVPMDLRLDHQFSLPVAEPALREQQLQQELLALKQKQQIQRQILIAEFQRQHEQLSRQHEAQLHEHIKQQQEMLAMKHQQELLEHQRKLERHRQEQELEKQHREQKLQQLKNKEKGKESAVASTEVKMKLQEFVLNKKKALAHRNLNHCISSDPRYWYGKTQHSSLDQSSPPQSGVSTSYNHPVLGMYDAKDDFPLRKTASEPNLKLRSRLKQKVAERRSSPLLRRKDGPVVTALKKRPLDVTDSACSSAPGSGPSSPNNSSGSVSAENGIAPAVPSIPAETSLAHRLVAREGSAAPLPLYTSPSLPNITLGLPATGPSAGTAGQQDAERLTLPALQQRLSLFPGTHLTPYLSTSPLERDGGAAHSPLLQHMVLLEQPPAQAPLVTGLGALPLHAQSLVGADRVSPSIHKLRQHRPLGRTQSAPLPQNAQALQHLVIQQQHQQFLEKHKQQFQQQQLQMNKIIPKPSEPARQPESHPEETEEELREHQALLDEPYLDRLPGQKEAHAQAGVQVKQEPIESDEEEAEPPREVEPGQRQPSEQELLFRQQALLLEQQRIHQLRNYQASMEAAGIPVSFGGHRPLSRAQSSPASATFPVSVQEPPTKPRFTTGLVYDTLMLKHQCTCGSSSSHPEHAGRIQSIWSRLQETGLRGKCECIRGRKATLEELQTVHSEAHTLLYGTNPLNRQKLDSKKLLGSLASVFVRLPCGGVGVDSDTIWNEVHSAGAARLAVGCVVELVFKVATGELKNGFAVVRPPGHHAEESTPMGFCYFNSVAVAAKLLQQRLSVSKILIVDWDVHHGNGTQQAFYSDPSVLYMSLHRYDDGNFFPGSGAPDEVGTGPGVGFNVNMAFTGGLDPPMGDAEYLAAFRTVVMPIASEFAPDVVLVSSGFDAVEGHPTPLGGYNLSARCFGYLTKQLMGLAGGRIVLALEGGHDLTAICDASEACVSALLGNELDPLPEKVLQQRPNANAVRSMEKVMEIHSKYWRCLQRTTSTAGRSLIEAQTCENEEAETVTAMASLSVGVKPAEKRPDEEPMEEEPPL
Description: as §1

HDAC5 = HDAC5 (Homo sapiens, UniProt Q9UQL6); experiment: as above; type: cell-based; set-up: endogenous in cells; host or cells: Kelly cells; conditions: 1 μM, 5-hour treatment, vs DMSO, FIG. 3
Sequence of HDAC5 (Q9UQL6 whole entry): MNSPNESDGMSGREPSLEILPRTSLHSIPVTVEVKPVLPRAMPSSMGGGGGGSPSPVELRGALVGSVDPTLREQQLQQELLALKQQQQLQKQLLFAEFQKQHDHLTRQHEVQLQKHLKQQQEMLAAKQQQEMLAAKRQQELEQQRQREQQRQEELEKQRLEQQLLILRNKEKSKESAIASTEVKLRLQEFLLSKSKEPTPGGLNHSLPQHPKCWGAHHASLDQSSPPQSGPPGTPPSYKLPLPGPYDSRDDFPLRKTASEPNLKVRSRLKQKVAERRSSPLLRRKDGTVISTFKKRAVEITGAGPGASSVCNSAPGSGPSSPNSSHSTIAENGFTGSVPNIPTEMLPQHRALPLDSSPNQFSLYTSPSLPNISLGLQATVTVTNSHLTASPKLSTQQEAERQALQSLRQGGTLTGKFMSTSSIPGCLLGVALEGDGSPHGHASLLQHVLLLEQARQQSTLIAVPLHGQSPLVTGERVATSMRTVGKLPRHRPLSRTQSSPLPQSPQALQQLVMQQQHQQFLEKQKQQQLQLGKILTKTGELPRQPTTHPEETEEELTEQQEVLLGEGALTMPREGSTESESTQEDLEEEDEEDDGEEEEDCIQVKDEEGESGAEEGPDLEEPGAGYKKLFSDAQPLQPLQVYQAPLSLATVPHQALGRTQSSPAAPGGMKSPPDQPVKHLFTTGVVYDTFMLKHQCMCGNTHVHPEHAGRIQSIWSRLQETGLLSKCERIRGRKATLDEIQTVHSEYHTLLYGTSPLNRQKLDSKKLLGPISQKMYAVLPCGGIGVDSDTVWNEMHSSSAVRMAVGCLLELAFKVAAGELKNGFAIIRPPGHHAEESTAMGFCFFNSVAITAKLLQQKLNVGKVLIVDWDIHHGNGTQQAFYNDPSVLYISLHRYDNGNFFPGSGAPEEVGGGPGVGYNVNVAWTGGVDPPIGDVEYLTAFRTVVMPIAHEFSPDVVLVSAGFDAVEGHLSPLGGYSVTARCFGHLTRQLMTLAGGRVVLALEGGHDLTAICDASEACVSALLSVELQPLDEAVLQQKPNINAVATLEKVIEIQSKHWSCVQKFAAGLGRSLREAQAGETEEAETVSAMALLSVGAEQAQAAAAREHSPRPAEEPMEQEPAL
Description: as §1

class IIa HDACs = experiment: as above; type: cell-based, human; conditions: 1 μM, 5 hours, vs DMSO, moderated t-test, FIG. 4B-4C
Description: Cells were washed once with phosphate-buffered saline (PBS), harvested with CellstripperTM (Corning®), washed two additional times with PBS and snap frozen in liquid nitrogen. […] Proteins were precipitated using methanol/chloroform in Donovan et al., Elife 7:e38430 (2018). The precipitated protein was resuspended in 4 M Urea, 50 mM HEPES pH 7.4, followed by dilution to 1 M urea with the addition of 200 mM EPPS, pH 8. Proteins were first digested with LysC (1:50: enzyme:protein) for 12 hours at room temperature. The LysC digestion was diluted to 0.5 M Urea with 200 mM EPPS pH 8 followed by digestion with trypsin (1:50: enzyme:protein) for 6 hours at 37° C. Tandem mass tag (TMT) reagents (Thermo Fisher Scientific) were dissolved in anhydrous acetonitrile (ACN) according to manufacturer's instructions. Anhydrous ACN was added to each peptide sample to a final concentration of 30% v/v, and labeling was induced with the addition of TMT reagent to each sample at a ratio of 1:4 peptide:TMT label. The 11-plex labeling reactions were performed for 1.5 hours at room temperature and the reaction quenched by the addition of hydroxylamine to a final concentration of 0.3% for 15 minutes at room temperature. The sample channels were combined at a 1:1 ratio, desalted using C18 solid phase extraction cartridges (Waters®) and analyzed by LC-MS for channel ratio comparison. Samples were then combined using the adjusted volumes determined in the channel ratio analysis and dried down in a speed vacuum. The combined sample was then resuspended in 1% formic acid, and acidified (pH 2-3) before being subjected to desalting with C18 SPE (Sep-Pak®-, Waters®). […] Proteome Discoverer 2.2 (Thermo Fisher Scientific) was used for .RAW file processing and controlling peptide and protein level false discovery rates, assembling proteins from peptides, and protein quantification from peptides. […] TMT reporter ion intensities were measured using a 0.003 Da window around the theoretical m/z for each reporter ion in the MS3 scan. […]

Row | Structure (SMILES) | protein expression level of HDAC7 (HDAC7) | inhibition of HDAC6 (HDAC6) | inhibition of HDAC8 (HDAC8) | protein expression level of HDAC4 (HDAC4) | protein expression level of HDAC5 (HDAC5) | class IIa HDAC levels (relative protein abundance) (class IIa HDACs)
1 | O=C1CCC(N2C(=O)c3cccc(NCCCCCCN4CCC(CNC(=O)c5cccc(-c6noc(C(F)(F)F)n6)c5)(c5nc(-c6ccccc6)cs5)CC4)c3C2=O)C(=O)N1 (stereo not shown) [Compound 1] | selective reduction in protein expression level | did not inhibit | did not inhibit |  |  | 
2 | CCN(CCNc1cccc2c1C(=O)N(C1CCC(=O)NC1=O)C2=O)C[C@@H](C)NC(=O)c1ccc(-c2noc(C(F)(F)F)n2)cc1 (stereo partly drawn) [Compound 16, N-((2R)-1-((2-((2-(2,6-dioxopiperidin-3-yl)-1,3-dioxoisoindolin-4-yl)amino)ethyl)(ethyl)amino)propan-2-yl)-4-(5-(trifluoromethyl)-1,2,4-oxadiazol-3-yl)benzamide] | reduction in protein expression level |  |  | reduction in protein expression level | reduction in protein expression level | significant reduction
